Counter-ions that a name gives are not always drawn.
What was measured:
[1] = test system: patients hospitalized for acute heart failure (AHF); test: Self-reported dyspnoea by visual analogue scale (VAS); format: in vivo, human
Description: (§1) The primary efficacy endpoint was the change from baseline to 24 h after the start of the infusion in the E/e ratio assessed by tissue Doppler echocardiography. Secondary endpoints included the change from baseline to 24 h of other echocardiography parameters: LVEF, left ventricular end-systolic and end-diastolic volumes, stroke volume index, E, A, E/A ratio, and S′: changes in dyspnoea by visual analogue scale (VAS) and in NT-proBNP from baseline to 24 h: proportion of patients with hospital readmissions or emergency visits for cardiovascular reasons by day 30; proportion of patients with episodes of in-hospital worsening heart failure to day 4, and length of stay. In-hospital worsening heart failure was defined by the need to increase the dose or reinitiate intravenous therapy with diuretics and/or other inotropic agents to day 4. Safety endpoints were assessed throughout the study and included: incidence of adverse events (AEs): change in vital signs and in 12-lead electrocardiographic (ECG) parameters: incidence of clinically or haemodynamically significant episodes of supraventricular or ventricular arrhythmias detected by continuous ECG monitoring: standard laboratory parameters: renal function: cardiac troponin T (cTnT): incidence of cTnT elevations, and mortality at day 30. Elevations in cTnT were considered significant if they were >50% or >20% from baseline values, for patients with cTnT below or above the 99% upper reference limit at baseline, respectively.
The study design included a 24 h screening period, a 24 h study drug infusion phase (day 1), a post-treatment phase (days 2-4), and a follow-up visit at day 30 (FIG. 5). Patients could be enrolled at any time after admission. The use of oral medications was permitted during the study with the exception of digoxin. Intravenous diuretics were permitted during the treatment period at stable doses, unless changes were required due to clinically relevant variations of the patient's condition. If treatment with an inotrope was clinically necessary during the infusion period, the investigational product was discontinued. Echocardiography was performed according to international standards at screening, baseline (just before starting study drug infusion), 6, 24 h (just before infusion end), and 48 h after infusion start. Echocardiographic measurements at baseline, 6, 24, and 48 h were evaluated in a blinded fashion by a CoreLab located at the University and Civil Hospital of Brescia, Italy. E/e′ ratio was calculated as the ratio between the peak early diastolic mitral flow velocity (E wave) and the mean of the annular lateral (e′ lateral) and septal (e′ septal) velocities, according to standard guidelines.^20 Intraobserver and interobserver variability in E/e′ measurement was tested on the 15% of the recordings and is shown in FIG. 6. Self-reported dyspnoea was assessed using a 100 mm VAS, with zero representing the worst level of dyspnoea and […] the best breathing condition. Twenty-four hour ECG monitoring was performed using a three-lead device (Mortara industries, Milwaukee, WI, USA) during the day of screening, the infusion period, and the day after (the latter was optional). Analysis was conducted by a blinded CoreLab (ICS Maugeri, Italy). Serial measurements of NT-proBNP throughout the study were analyzed by a central laboratory (Elecsys® proBNP II, Roche®, Basel, Switzerland). Samples for cTnT were taken at baseline, 3, 6, 12, 24, 48, and 72 h and on day 30, and were analyzed by a core laboratory (Elecsys® high-sensitivity assay, Roche®, Basel, Switzerland). AEs were monitored throughout the duration of the study.
The study was designed as a mechanistic and safety study to assess the effects of a 24 h istaroxime infusion in patients hospitalized for AHF. […]

[2] = test system: patients hospitalized for acute heart failure (AHF); design: species or system human; settings: in vivo
Description: as §1, with “In-hospital worsening heart failure was defined by the need to increase the dose or reinitiate intravenous therapy with diuretics and/or other inotropic agents to day 4.” left out, “Elevations in cTnT were considered significant if they were >50% or >20% from baseline values, for patients with cTnT below or above the 99% upper reference limit at baseline, respectively.” left out
The study design included a 24 h screening period, a 24 h study drug infusion phase (day 1), a post-treatment phase (days 2-4), and a follow-up visit at day 30 (FIG. 5). […] AEs were monitored throughout the duration of the study. […]

[3] = test system: AHF patients with systolic blood pressure (SBP) of 90-150 mmHg; settings: 0.5, 1.0, and 1.5 μg/kg/min for 6 h; cited from earlier work
[4] = test system: dogs with chronic ischemic heart failure; settings: cited from earlier work

Compound: C[C@]12CCC(=NOCCN)C[C@@H]1C(=O)C[C@@H]1[C@@H]2CC[C@]2(C)C(=O)CC[C@@H]12 [Istaroxime, (E,Z)-3-((2-aminoethoxy)imino)androstane-6,17-dione hydrochloride]
- Dyspnoea VAS score, mean change from baseline ([1]; 0.5 μg/Kg/min, 3 hours): 4.113
- Dyspnoea VAS score, mean change from baseline ([1]; 0.5 μg/Kg/min, 6 hours): 6.582
- Dyspnoea VAS score, mean change from baseline ([1]; 0.5 μg/Kg/min, 12 hours): 6.772
- Dyspnoea VAS score, mean change from baseline ([1]; 0.5 μg/Kg/min, 24 hours): 9.276
- Dyspnoea VAS score, mean change from baseline ([1]; 0.5 μg/Kg/min, 48 hours): 10.948
- Dyspnoea VAS score, mean change from baseline ([1]; 1.0 μg/Kg/min, 3 hours): 4.212
- Dyspnoea VAS score, mean change from baseline ([1]; 1.0 μg/Kg/min, 6 hours): 8.637
- Dyspnoea VAS score, mean change from baseline ([1]; 1.0 μg/Kg/min, 12 hours): 9.076
- Dyspnoea VAS score, mean change from baseline ([1]; 1.0 μg/Kg/min, 24 hours): 13.332
- Dyspnoea VAS score, mean change from baseline ([1]; 1.0 μg/Kg/min, 48 hours): 10.075
- cardiac troponin absolute values [2]: No significant changes
- cardiac index [3]: increased only at the highest dose
- lusitropic effect assessed by increased mitral deceleration time [3]: occurred only at the highest dose
- myocardial relaxation (e′ diastolic velocity, tissue Doppler) ([4]; compared to dobutamine): improved myocardial relaxation
- peak heart rate ([4]; compared with dobutamine): significantly lower

Source: patent publication US12697343B2, “Intravenous istaroxime for the treatment of acute heart failure” (Seismic Pharmaceuticals Operations LLC, priority 2021, dated 2026)
